This is an account of results in ChEMBL document CHEMBL1821558, “Toward potent α-glucosidase inhibitors based on xanthones: a closer look into the structure-activity correlations” (Eur J Med Chem, 2011).

Broadly, the IC50 is the concentration that inhibits the measured activity by half. A lower IC50 goes with greater potency in that assay. Usually Ki stands for the dissociation constant of the complex between target and ligand, obtained from inhibition or displacement. A lower Ki goes with higher affinity.

Experiment [1] relates to Saccharomyces cerevisiae. The experiment can be described thus: Non competitive inhibition of yeast alpha-glucosidase using PNP glycoside as substrate at 15.3 uM preincubated for 30 mins by Lineweaver-Burk plot analysis.
The subject of experiment [2] is Saccharomyces cerevisiae. The experiment is described as follows: Ratio of 1,3,6,8-tetrahydroxy-9H-xanthen-9-one IC50 to compound IC50 for yeast alpha-glucosidase.
The nature of experiment [3]: Inhibition of yeast alpha-glucosidase using PNP glycoside as substrate after 30 mins by spectrophotometry. Further details: species or system Saccharomyces cerevisiae.
A short description of experiment [4]: Non competitive inhibition of yeast alpha-glucosidase using PNP glycoside as substrate preincubated for 30 mins by Lineweaver-Burk plot analysis. Further details: species or system Saccharomyces cerevisiae.
In experiment [5] the test system is Saccharomyces cerevisiae. The experiment can be described thus: Ratio of 1,3-dihydroxy-7-methyl-9H-xanthen-9-one IC50 to compound IC50 for yeast alpha-glucosidase.
Experiment [6] has as its system Saccharomyces cerevisiae. The experiment can be described thus: Non competitive inhibition of yeast alpha-glucosidase using PNP glycoside as substrate at 34.8 uM preincubated for 30 mins by Lineweaver-Burk plot analysis.
Experiment [7] has as its system Saccharomyces cerevisiae. The experiment is described as follows: Ratio of 1,3,6-trihydroxy-9H-xanthen-9-one IC50 to compound IC50 for yeast alpha-glucosidase.
Experiment [8] has as its system Saccharomyces cerevisiae. The experiment can be described thus: Non competitive inhibition of yeast alpha-glucosidase using PNP glycoside as substrate at 25.4 uM preincubated for 30 mins by Lineweaver-Burk plot analysis.
For experiment [9], the system named is Saccharomyces cerevisiae. The experiment is described as follows: Ratio of 1,3-dihydroxy-9H-xanthen-9-one IC50 to compound IC50 for yeast alpha-glucosidase.

Calls of active or inactive are those of the source. The calls are words filed in the database; no cut-off is given here.

As for `O=c1c2c(O)cc(O)cc2oc2cc(O)c(-c3c(O)ccc4ccccc34)c(O)c12`, the inhibition entry in the experiment on Saccharomyces cerevisiae [1] is “Active”. Also, the Ratio IC50 in the experiment on Saccharomyces cerevisiae [2] was 2. The midpoint of inhibition in [3], the IC50, lay at 8.1 µM. This molecule registered a Ki in experiment [4] of 29.2 µM.
For `Cc1ccc2oc3c(-c4c(O)ccc5ccccc45)c(O)c(-c4c(O)ccc5ccccc45)c(O)c3c(=O)c2c1`, the IC50 in [3] came out at 6.4 µM.
For `Cc1ccc2oc3cc(O)c(-c4c(O)ccc5ccccc45)c(O)c3c(=O)c2c1`, the Ratio IC50 with Saccharomyces cerevisiae [5] was 2. This molecule yielded an IC50 in experiment [3] of 26.5 µM.
`O=c1c2ccccc2oc2c(-c3c(O)ccc4ccccc34)c(O)c(-c3c(O)ccc4ccccc34)c(O)c12` registered an IC50 in experiment [3] of 10.1 µM.
For `O=c1c2ccc(O)cc2oc2cc(O)cc(O)c12`, inhibition in [3] was half-maximal at 41.5 µM (IC50).
Take `O=c1c2c(O)cc(O)cc2oc2cc(O)cc(O)c12`: the inhibition result in the experiment with Saccharomyces cerevisiae [6] was “Active”. In addition, the IC50 in [3] is 17.2 µM. In experiment [4], this molecule gave an inhibition constant (Ki) of 62.8 µM.
For the molecule `Cc1ccc2oc3cc(O)cc(O)c3c(=O)c2c1`, the IC50 in experiment [3] is more than 200 µM.
In experiment [3], `O=c1c2ccccc2oc2cc(O)c(-c3c(O)ccc4ccc(O)cc34)c(O)c12` had a half-inhibitory concentration (IC50) of 75.4 µM.
In the case of `O=c1c2ccc(O)cc2oc2cc(O)c(-c3c(O)ccc4ccc(O)cc34)c(O)c12`, the half-maximal inhibitory concentration (IC50) in experiment [3] was 47.6 µM.
`O=c1c2ccc(O)cc2oc2cc(O)c(-c3c(O)ccc4ccccc34)c(O)c12`: the 50% inhibitory concentration (IC50) in [3] stood at 10.5 µM. For the same molecule, the Ratio IC50 with Saccharomyces cerevisiae [7] is 2.
In experiment [3], `O=c1c2ccc(O)cc2oc2c(-c3c(O)ccc4ccccc34)c(O)c(-c3c(O)ccc4ccccc34)c(O)c12` had a concentration for half-maximal inhibition (IC50) of 6.2 µM.
The molecule `O=c1c2c(O)cc(O)cc2oc2cc(O)c(-c3c(O)ccc4ccc(O)cc34)c(O)c12` returned a concentration for half-maximal inhibition (IC50) in [3] of 17.4 µM. For the same molecule, the inhibition result with Saccharomyces cerevisiae [8] is “Active”. Also, the Ki in [4] came out at 50.9 µM.
As to `Cc1ccc2oc3cc(O)c(-c4c(O)ccc5ccc(O)cc45)c(O)c3c(=O)c2c1`, in experiment [3], the IC50 stood at 112 µM.
On the same count and under the same terms, as for `O=c1c2ccccc2oc2cc(O)cc(O)c12`, the figure is 161 µM.
The molecule `O=c1c2ccccc2oc2cc(O)c(-c3c(O)ccc4ccccc34)c(O)c12` registered an IC50 in [3] of 47.7 µM. Also, the Ratio IC50 in the experiment on Saccharomyces cerevisiae [9] was found to be 2.
With `OC[C@H]1NC[C@H](O)[C@@H](O)[C@@H]1O` [DUVOGLUSTAT], half-maximal inhibition in experiment [3] (IC50) required 40 µM.
